Experimental data taken from publication PMC6161288, “Bioavailability of Eurycomanone in Its Pure Form and in a Standardised Eurycoma longifolia Water Extract” (Pharmaceutics, 2018).

Columns and labels:
[1] = Lipophilicity, shake flask method with octanol and buffer (pH 7.4); type: physicochemical; conditions: pH 7.4, octanol/buffer shake flask; read-out: distribution coefficient log D
Experimental: The lipophilicity of eurycomanone was estimated using the shake flask method with octanol and buffer (pH 7.4). Eurycomanone (5 µL) at 5 mM concentration is added to octanol (495 µL) and DMSO (495 µL) and also into the aqueous and octanol phase in a 1:1 ratio ([…] of octanol phase and 247.5 µL of aqueous phase). The octanol and aqueous phases were prepared using a saturation process, where equal amounts of D-PBS (pH 7.4) and octanol were saturated (300 rpm, room temperature) for 24 h before being separated and kept at room temperature. The prepared mixtures were vortexed and kept on the shaker (300 rpm) at room temperature for 16 h. The mixtures were allowed to stand for 30 min, and 200 µL of solution was transferred and sent for HPLC analysis.

[2] = Plasma protein binding (rapid equilibrium dialysis), rat; type: in vitro ADME; conditions: rat, plasma, pH 7.4, rat plasma
Experimental: (§1) The ability of eurycomanone to bind plasma protein was analysed in five types of plasma (mice, rat, dog, monkey, and human). Each type of plasma was spiked with eurycomanone (1 mM) to make the 10 µM test concentration of eurycomanone in the plasma. Equilibrium dialysis buffer (500 µL) at pH 7.4 was added to the right chamber in rapid equilibrium dialysis (RED), while the spiked plasma (300 µL) was added to the left chamber. The Teflon base plate was covered with aluminium foil and left on the shaking incubator at 37 °C for 4 h. The matrix was balanced by mixing 100 µL of the equilibrium buffer with the spiked plasma from the left chamber in RED before adding the stop solution (350 µL) to precipitate out the protein. The supernatant (10,000 rpm, 10 min, 4 °C) was collected and analysed using LC-MS/MS. The standards (propranolol, warfarin, and acebutalol) were analysed in duplicates.

plasma protein = assay: as above; type: in vitro ADME; conditions: rat plasma, 10 µM, 37 °C, 4 h
Experimental: as §1

[3] = Caco-2 cell permeability assay; type: in vitro ADME; conditions: human
Experimental: The Caco-2 assay was carried out after seeding the cells onto the membrane to form a confluent monolayer in 21 days. The media is removed from apical (A) and basolateral (B) chambers and the membrane is washed with HBSS buffer. Eurycomanone (10 µM, 200 µL) was added to the A compartment (which represents the intestinal lumen), and buffer (300 µL) was added to the B compartment (representing the blood), and vice versa. The plate was kept in a shaking incubator (37 °C) for 1 h. The amount of eurycomanone that had permeated across the cells was measured by LC-MS/MS, and the apparent permeability (Papp) values and efflux ratio were calculated. The expression of P-glycoprotein (P-gp) by differentiated Caco-2 cells was confirmed by measuring the Papp value and efflux ratio of vinblastine with and without the presence of a competing P-gp substrate, cyclosporine A. Eurycomanone was also measured with the presence of cyclosporine A to investigate whether eurycomanone may be transported via P-gp transporters.

[4] = tested on: HepG2 cell-induced tumours; design: method as in earlier work; conditions: 17 mg/kg orally, nude mice with HepG2 cell-induced tumours; cited from earlier work
[5] = Plasma protein binding (rapid equilibrium dialysis), dog; type: in vitro ADME; conditions: pH 7.4, 37 °C, read-out: percentage bound to plasma protein (converted)
Experimental: as §1

C=C1[C@@H](O)[C@]2(O)OC[C@]34[C@H]2[C@@]2(C)[C@H](O)C(=O)C=C(C)[C@@H]2C[C@H]3OC(=O)[C@H](O)[C@@]14O [Eurycomanone]
logD at 16 h [1]: -0.35 | fraction unbound at 4 h, 10 µM ([2]; 10 µM, 37 °C, 4 h, read-out: percentage bound to plasma protein (converted)): 0.699 | fraction unbound at 4 h, 10 µM ([2]; read-out: unbound fraction): 0.7 | percentage bound to plasma protein (plasma protein): 30% | Papp at 1 h, 10 µM ([3]; Caco-2, Caco-2, A to B): 0.45 ×10⁻⁶ cm/s | Papp at 1 h, 10 µM ([3]; Caco-2, Caco-2, B to A): 0.73 ×10⁻⁶ cm/s | efflux ratio at 1 h, 10 µM ([3]; Caco-2, Caco-2, read-out: Efflux Ratio): < 2 | tumour suppression [4]: tumour suppression ability was demonstrated | fraction unbound at 4 h, 10 µM [5]: 0.322
